The values below come from patent publication US12262725B2, “Improving taste profile of orange juice” (SYMRISE AG, priority 2015, dated 2025).

The structures appear in SMILES notation.

Type in all cases: in vivo
Test [1] in a line: Masking the perception of the acid and the bitterness in orange juice; panelists rate sweet, bitter and sour on a 0-10 scale. Particulars: for Assessment (0-10) Bitter / Assessment (0-10) Sour / Assessment (0-10) Sweet: scale 0-10. The source says: The panelists (n=6-8) thereby evaluate the 3 attributes “sweet”, “bitter” and “sour” on an unstructured scale of 0 (no taste) to 10 (strong taste). In one sample, the panelists receive the orange juice alone, in a further sample, they received the orange juice which was supplemented with an amount of neoflavonoids as listed in one of the tables. Thereby, the order is arbitrary and not known to the panelists before.
In the following Tables 1A to 1D, the results of the evaluations are summed up.

Test [2] is described as follows: Masking of typical bitter substances from citrus products; bitterness rated by a group of experts. The conditions noted are these: for Assessment Bitter (0-10) With neoflavonoid: amount of neoflavonoid not given; for Relative masking (bitter): with vs without neoflavonoid. The source says:
Masking of Typical Bitter Substances from Citrus Products
For quantifying the reduction (i.e. the masking or the decrease) of the bitter impression in a sample, the bitterness of a solution containing the bitter substances named in the following Table 2 in column 1 were each compared with a sample, which contained the corresponding bitter substance and additionally the respectively specified amount of a neoflavonoid (column 2) by a group of experts (classification: 1 [not bitter] to 10 [extremely bitter]). For the analysis, i. e. the calculation of the reduction (in %) of the bitter impression, the respective average values of the assessments of the group of experts were used.

The nature of test [3]: Masking of the perception of the acid in citrus containing carbonated drinks; panelists rate sour on a 0-10 scale. From the text: Masking of the Perception of the Acid in Citrus Containing Carbonated Drinks
For quantifying the reduction (i. e. the masking or the decrease) of the perception of the acid in a sample, the panelists (n=6-8) assess the attribute “sour” on a non-structured scale from 0 (no taste)-10 (strong taste). The panelists receive in one sample the citrus/-lime soft drink reduced in sugar alone, in a further sample the soft drink, to which an amount of neoflavonoids specified in Table 3 has been added. Thereby, the order is arbitrary and not known to the panelists before. In the following Table, the results of the evaluations are summed up.

Where [4] appears, read: HLB Hamlin orange juice, 15 ppm neoflavonoid vs juice alone.
The mark [5] stands for this setting: Orange juice comprising 7.8 ppm limonin, 10 ppm neoflavonoid vs juice alone.
Setting [6] is: Orange juice comprising 7.8 ppm limonin, 10 ppm neoflavonoid, n=6-8.
[7] abbreviates: Orange juice, oranges infected with HLB from early ripening Hamlin March 2014, 15 ppm neoflavonoid, n=6-8.
The mark [8] stands for this setting: Trial 1B, orange juice comprising 7 ppm limonin, 20 ppm neoflavonoid vs juice alone.
Setting [9] is: Trial 1B, orange juice comprising 7 ppm limonin, 20 ppm neoflavonoid.
The mark [10] stands for this setting: Trial 1C, orange juice comprising 7 ppm limonin, 25 ppm neoflavonoid vs juice alone.
Where [11] appears, read: Trial 1C, orange juice comprising 7 ppm limonin, 25 ppm neoflavonoid.
Setting [12] is: Trial 1D, orange juice comprising 7 ppm limonin, 25 ppm neoflavonoid vs juice alone.
Where [13] appears, read: Trial 1D, orange juice comprising 7 ppm limonin, 25 ppm neoflavonoid.

As to `COc1cc(C2CC(=O)Oc3cc(O)cc(O)c32)ccc1O` (stereo not shown) [1:1 mixture from component 9 and 10, 5,7-dihydroxy-4-(4-hydroxy-3-methoxy-phenyl)chroman-2-on], in test [1] (setting [4]), the “Relative change Bitter” value is listed as −36%, the “Relative change Sour” value is recorded as −19% and the “Relative change Sweet” value is recorded as “+22%”. In test [1] (setting [5]), the “Relative change Bitter” value is recorded as −46%, the “Relative change Sour” value was −35% and the “Relative change Sweet” value is reported as “+52%”. For the same compound, in test [1] (setting [6]), the “Assessment (0-10) Bitter” value stood at 2.5, the “Assessment (0-10) Sour” value is on record as 3.5 and the “Assessment (0-10) Sweet” value is 6.0. In addition, in test [1] (setting [7]), the “Assessment (0-10) Bitter” value was 2.7, the “Assessment (0-10) Sour” value was determined as 3.5 and the “Assessment (0-10) Sweet” value was 3.8. In test [2] (solution of 10 ppm limonin), the “Assessment Bitter (0-10) With neoflavonoid” value (“Assessment Bitter” below) amounted to 2.5 and the “Relative masking (bitter)” value was −19%. In addition, in test [2] (solution of 50 ppm poncirin), the “Assessment Bitter” value is recorded as 3.5 and the “Relative masking (bitter)” value is −29%. In test [2] (solution of 75 ppm naringin), the “Assessment Bitter” value was 2.9 and the “Relative masking (bitter)” value is given as −24%.

`O=C1CC(c2ccc(O)cc2)c2c(O)cc(O)cc2O1` (stereo not shown) [1:1 mixture from component 11 and 12, 5,7-dihydroxy-4-(4-hydroxyphenyl)-chroman-2-on]: in test [1] (setting [8]), the “Relative change Bitter” value is listed as −45%, the “Relative change Sour” value was −33% and the “Relative change Sweet” value is listed as “+13%”. In test [1] (setting [9]), the “Assessment (0-10) Bitter” value came out at 2.8, the “Assessment (0-10) Sour” value was determined as 3.1 and the “Assessment (0-10) Sweet” value is given as 4.8. Besides, in test [2] (solution of 10 ppm limonin), the “Assessment Bitter” value stood at 2.8 and the “Relative masking (bitter)” value is −38%. Further, in test [2] (solution of 50 ppm poncirin), the “Assessment Bitter” value was 3.6 and the “Relative masking (bitter)” value is listed as −8%. Also, in test [2] (solution of 75 ppm naringin), the “Assessment Bitter” value is reported as 3.7 and the “Relative masking (bitter)” value was −18%.

`O=C1CC(c2ccc(O)cc2)c2ccc(O)cc2O1` (stereo not shown) [1:1 mixture from component 29 and 30, 7-hydroxy-4-(4-hydroxy-phenyl)-chroman-2-on]: in test [1] (setting [10]), the “Relative change Bitter” value is on record as −45%, the “Relative change Sour” value was −33% and the “Relative change Sweet” value is on record as “+13%”. Also, in test [1] (setting [11]), the “Assessment (0-10) Bitter” value turned out to be 2.4, the “Assessment (0-10) Sour” value amounted to 3.0 and the “Assessment (0-10) Sweet” value is reported as 5.3.

For `COc1cc(C2CC(=O)Oc3cc(O)cc(OC)c32)ccc1O` (stereo not shown) [1:1 mixture from component 41 and 42, 7-hydroxy-4-(4-hydroxy-3-methoxy-phenyl)-5-methoxy-chroman-2-on], in test [1] (setting [12]), the “Relative change Bitter” value is on record as −43%, the “Relative change Sour” value was −13% and the “Relative change Sweet” value is “+43%”. In test [1] (setting [13]), the “Assessment (0-10) Bitter” value was determined as 2.7, the “Assessment (0-10) Sour” value amounted to 3.7 and the “Assessment (0-10) Sweet” value amounted to 5.9. In test [2] (solution of 100 ppm naringin), the “Assessment Bitter” value was 3.7 and the “Relative masking (bitter)” value was −15%. Also, the “Relative masking (sour)” value in test [3] (Carbonated soft drink (7° Brix, 0.2% citric acid), with vs without neoflavonoid, p < 0.1) was −17%. In addition, the “Assessment Sour (0-10) With neoflavonoid” value in test [3] (Carbonated soft drink (7° Brix, 0.2% citric acid, 0.0001% citrus oil, 0.0001% lime oil, 0.06% citrus aroma), n=6-8) is 3.4.
